test system: Key Broadleaf Weed and Crop Species; assay: Post-Emergent Test II (Table 5); format: in vivo; conditions: Abutilon theophrasti, post-emergence, 336 h, ABUTH: velvetleaf (Abutilon theophrasti), application rate 70 (kg ai/ha; footnote: g ai/ha), read-out: Visual Growth Reduction (%) 14 Days After Application ABUTH
Method in brief: (§1)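 Visual injury ratings (0 = no injury, 100 = complete kill) were taken 14 days after treatment relative to untreated plants. Seedlings at the first or second true leaf stage received an overhead spray at 187 L/ha, and solvent-blank sprayed plants served as controls.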

SMILES	pest or weed control at 70 g/ha
Cc1c(-c2nc(C(=O)O)c(Cl)c(N)c2F)ccc(Cl)c1F [Compound 67]	85 to 94%

same assay, conditions: Abutilon theophrasti, post-emergence, 336 h, ABUTH: velvetleaf (Abutilon theophrasti), application rate 140 (kg ai/ha; footnote: g ai/ha), read-out: Visual Growth Reduction (%) 14 Days After Application ABUTH

SMILES	pest or weed control at 140 g/ha
Cc1c(-c2nc(C(=O)O)c(Cl)c(N)c2F)ccc(Cl)c1F [Compound 67]	85 to 94%

same assay, conditions: Amaranthus retroflexus, post-emergence, 336 h, AMARE: redroot pigweed (Amaranthus retroflexus), application rate 70 (kg ai/ha; footnote: g ai/ha), read-out: Visual Growth Reduction (%) 14 Days After Application AMARE

SMILES	pest or weed control at 70 g/ha
Cc1c(-c2nc(C(=O)O)c(Cl)c(N)c2F)ccc(Cl)c1F [Compound 67]	95 to 100%

same assay, conditions: Amaranthus retroflexus, post-emergence, 336 h, AMARE: redroot pigweed (Amaranthus retroflexus), application rate 140 (kg ai/ha; footnote: g ai/ha), read-out: Visual Growth Reduction (%) 14 Days After Application AMARE

SMILES	pest or weed control at 140 g/ha
Cc1c(-c2nc(C(=O)O)c(Cl)c(N)c2F)ccc(Cl)c1F [Compound 67]	95 to 100%

same assay, conditions: Brassica napus, post-emergence, 336 h, BRSSS: oilseed rape, canola (Brassica napus), application rate 70 (kg ai/ha; footnote: g ai/ha), read-out: Visual Growth Reduction (%) 14 Days After Application BRSSS

SMILES	pest or weed control at 70 g/ha
Cc1c(-c2nc(C(=O)O)c(Cl)c(N)c2F)ccc(Cl)c1F [Compound 67]	95 to 100%

same assay, conditions: Brassica napus, post-emergence, 336 h, BRSSS: oilseed rape, canola (Brassica napus), application rate 140 (kg ai/ha; footnote: g ai/ha), read-out: Visual Growth Reduction (%) 14 Days After Application BRSSS

SMILES	pest or weed control at 140 g/ha
Cc1c(-c2nc(C(=O)O)c(Cl)c(N)c2F)ccc(Cl)c1F [Compound 67]	95 to 100%

same assay, conditions: Chenopodium album, post-emergence, 336 h, CHEAL: lambsquarters (Chenopodium album), application rate 70 (kg ai/ha; footnote: g ai/ha), read-out: Visual Growth Reduction (%) 14 Days After Application CHEAL

SMILES	pest or weed control at 70 g/ha
Cc1c(-c2nc(C(=O)O)c(Cl)c(N)c2F)ccc(Cl)c1F [Compound 67]	95 to 100%

same assay, conditions: Chenopodium album, post-emergence, 336 h, CHEAL: lambsquarters (Chenopodium album), application rate 140 (kg ai/ha; footnote: g ai/ha), read-out: Visual Growth Reduction (%) 14 Days After Application CHEAL

SMILES	pest or weed control at 140 g/ha
Cc1c(-c2nc(C(=O)O)c(Cl)c(N)c2F)ccc(Cl)c1F [Compound 67]	95 to 100%

same assay, conditions: Euphorbia heterophylla, post-emergence, 336 h, EPHHL: wild poinsettia (Euphorbia heterophylla), application rate 70 (kg ai/ha; footnote: g ai/ha), read-out: Visual Growth Reduction (%) 14 Days After Application EPHHL

SMILES	pest or weed control at 70 g/ha
Cc1c(-c2nc(C(=O)O)c(Cl)c(N)c2F)ccc(Cl)c1F [Compound 67]	0 to 29%

same assay, conditions: Euphorbia heterophylla, post-emergence, 336 h, EPHHL: wild poinsettia (Euphorbia heterophylla), application rate 140 (kg ai/ha; footnote: g ai/ha), read-out: Visual Growth Reduction (%) 14 Days After Application EPHHL

SMILES	pest or weed control at 140 g/ha
Cc1c(-c2nc(C(=O)O)c(Cl)c(N)c2F)ccc(Cl)c1F [Compound 67]	0 to 29%

same assay, conditions: Helianthus annuus, post-emergence, 336 h, HELAN: sunflower (Helianthus annuus), application rate 70 (kg ai/ha; footnote: g ai/ha), read-out: Visual Growth Reduction (%) 14 Days After Application HELAN

SMILES	pest or weed control at 70 g/ha
Cc1c(-c2nc(C(=O)O)c(Cl)c(N)c2F)ccc(Cl)c1F [Compound 67]	95 to 100%

same assay, conditions: Helianthus annuus, post-emergence, 336 h, HELAN: sunflower (Helianthus annuus), application rate 140 (kg ai/ha; footnote: g ai/ha), read-out: Visual Growth Reduction (%) 14 Days After Application HELAN

SMILES	pest or weed control at 140 g/ha
Cc1c(-c2nc(C(=O)O)c(Cl)c(N)c2F)ccc(Cl)c1F [Compound 67]	95 to 100%

same assay, conditions: Viola tricolor, post-emergence, 336 h, VIOTR: wild pansy (Viola tricolor), application rate 70 (kg ai/ha; footnote: g ai/ha), read-out: Visual Growth Reduction (%) 14 Days After Application VIOTR

SMILES	pest or weed control at 70 g/ha
Cc1c(-c2nc(C(=O)O)c(Cl)c(N)c2F)ccc(Cl)c1F [Compound 67]	0 to 29%

same assay, conditions: Viola tricolor, post-emergence, 336 h, VIOTR: wild pansy (Viola tricolor), application rate 140 (kg ai/ha; footnote: g ai/ha), read-out: Visual Growth Reduction (%) 14 Days After Application VIOTR

SMILES	pest or weed control at 140 g/ha
Cc1c(-c2nc(C(=O)O)c(Cl)c(N)c2F)ccc(Cl)c1F [Compound 67]	0 to 29%

test system: Key Grass and Sedge Weeds as well as Grass Crops; assay: Post-Emergent Test II (Table 6); format: in vivo; conditions: post-emergence, 336 h, CYPSS, 70 g ai/ha, 14 days after application, read-out: Visual Growth Reduction (%) 14 Days After Application CYPSS
Method in brief: as §1

SMILES	pest or weed control at 70 g/ha
Cc1c(-c2nc(C(=O)O)c(Cl)c(N)c2F)ccc(Cl)c1F [Compound 67]	0 to 29%

same assay, conditions: post-emergence, 336 h, CYPSS, 140 g ai/ha, 14 days after application, read-out: Visual Growth Reduction (%) 14 Days After Application CYPSS

SMILES	pest or weed control at 140 g/ha
Cc1c(-c2nc(C(=O)O)c(Cl)c(N)c2F)ccc(Cl)c1F [Compound 67]	0 to 29%

same assay, conditions: post-emergence, 336 h, DIGSA: crabgrass (Digitaria sanguinalis), 70 g ai/ha, 14 days after application, read-out: Visual Growth Reduction (%) 14 Days After Application DIGSA

SMILES	pest or weed control at 70 g/ha
Cc1c(-c2nc(C(=O)O)c(Cl)c(N)c2F)ccc(Cl)c1F [Compound 67]	0 to 29%

same assay, conditions: post-emergence, 336 h, DIGSA: crabgrass (Digitaria sanguinalis), 140 g ai/ha, 14 days after application, read-out: Visual Growth Reduction (%) 14 Days After Application DIGSA

SMILES	pest or weed control at 140 g/ha
Cc1c(-c2nc(C(=O)O)c(Cl)c(N)c2F)ccc(Cl)c1F [Compound 67]	0 to 29%

same assay, conditions: post-emergence, 336 h, ECHSS, 70 g ai/ha, 14 days after application, read-out: Visual Growth Reduction (%) 14 Days After Application ECHSS

SMILES	pest or weed control at 70 g/ha
Cc1c(-c2nc(C(=O)O)c(Cl)c(N)c2F)ccc(Cl)c1F [Compound 67]	0 to 29%

same assay, conditions: post-emergence, 336 h, ECHSS, 140 g ai/ha, 14 days after application, read-out: Visual Growth Reduction (%) 14 Days After Application ECHSS

SMILES	pest or weed control at 140 g/ha
Cc1c(-c2nc(C(=O)O)c(Cl)c(N)c2F)ccc(Cl)c1F [Compound 67]	0 to 29%

same assay, conditions: post-emergence, 336 h, ORYSS (crop), 70 g ai/ha, 14 days after application, read-out: Visual Growth Reduction (%) 14 Days After Application ORYSS

SMILES	pest or weed control at 70 g/ha
Cc1c(-c2nc(C(=O)O)c(Cl)c(N)c2F)ccc(Cl)c1F [Compound 67]	0 to 29%

same assay, conditions: post-emergence, 336 h, ORYSS (crop), 140 g ai/ha, 14 days after application, read-out: Visual Growth Reduction (%) 14 Days After Application ORYSS

SMILES	pest or weed control at 140 g/ha
Cc1c(-c2nc(C(=O)O)c(Cl)c(N)c2F)ccc(Cl)c1F [Compound 67]	0 to 29%

same assay, conditions: post-emergence, 336 h, SETFA: giant foxtail (Setaria faberi), 70 g ai/ha, 14 days after application, read-out: Visual Growth Reduction (%) 14 Days After Application SETFA

SMILES	pest or weed control at 70 g/ha
Cc1c(-c2nc(C(=O)O)c(Cl)c(N)c2F)ccc(Cl)c1F [Compound 67]	0 to 29%

same assay, conditions: post-emergence, 336 h, SETFA: giant foxtail (Setaria faberi), 140 g ai/ha, 14 days after application, read-out: Visual Growth Reduction (%) 14 Days After Application SETFA

SMILES	pest or weed control at 140 g/ha
Cc1c(-c2nc(C(=O)O)c(Cl)c(N)c2F)ccc(Cl)c1F [Compound 67]	0 to 29%

same assay, conditions: post-emergence, 336 h, SORVU: grain sorghum (Sorghum vulgare), 70 g ai/ha, 14 days after application, read-out: Visual Growth Reduction (%) 14 Days After Application SORVU

SMILES	pest or weed control at 70 g/ha
Cc1c(-c2nc(C(=O)O)c(Cl)c(N)c2F)ccc(Cl)c1F [Compound 67]	0 to 29%

same assay, conditions: post-emergence, 336 h, SORVU: grain sorghum (Sorghum vulgare), 140 g ai/ha, 14 days after application, read-out: Visual Growth Reduction (%) 14 Days After Application SORVU

SMILES	pest or weed control at 140 g/ha
Cc1c(-c2nc(C(=O)O)c(Cl)c(N)c2F)ccc(Cl)c1F [Compound 67]	0 to 29%

same assay, conditions: post-emergence, 336 h, TRZSS (crop), 70 g ai/ha, 14 days after application, read-out: Visual Growth Reduction (%) 14 Days After Application TRZSS

SMILES	pest or weed control at 70 g/ha
Cc1c(-c2nc(C(=O)O)c(Cl)c(N)c2F)ccc(Cl)c1F [Compound 67]	0 to 29%

same assay, conditions: post-emergence, 336 h, TRZSS (crop), 140 g ai/ha, 14 days after application, read-out: Visual Growth Reduction (%) 14 Days After Application TRZSS

SMILES	pest or weed control at 140 g/ha
Cc1c(-c2nc(C(=O)O)c(Cl)c(N)c2F)ccc(Cl)c1F [Compound 67]	0 to 29%

same assay, conditions: post-emergence, 336 h, ZEAMX: maize, corn (Zea mays), 70 g ai/ha, 14 days after application, read-out: Visual Growth Reduction (%) 14 Days After Application ZEAMX

SMILES	pest or weed control at 70 g/ha
Cc1c(-c2nc(C(=O)O)c(Cl)c(N)c2F)ccc(Cl)c1F [Compound 67]	0 to 29%

same assay, conditions: post-emergence, 336 h, ZEAMX: maize, corn (Zea mays), 140 g ai/ha, 14 days after application, read-out: Visual Growth Reduction (%) 14 Days After Application ZEAMX

SMILES	pest or weed control at 140 g/ha
Cc1c(-c2nc(C(=O)O)c(Cl)c(N)c2F)ccc(Cl)c1F [Compound 67]	0 to 29%

Reference: patent publication US10765114B2, “4-amino-6-(pyridyl and 2-substitutedphenyl)-picolinates and 6-amino-2-(pyridyl and 2-substitutedphenyl)-pyrimidine-4-carboxylates and their use as herbicides” (Dow AgroSciences LLC, priority 2013, dated 2020)
